# Laboratory results from patent publication US9512152B2, “Phospholipid compound containing unsaturated fatty acid derivative having cyclopropane ring” (NISHIZAKI BIOINFORMATION RESEARCH INSTITUTE, priority 2013, dated 2016).
# Experiments:
# Human PTP1B = target: T1, Human PTP1B (Homo sapiens, UniProt P18031); assay: Assay of PTP1B activity under cell-free conditions (p-NPP substrate); format: biochemical; settings: FIG. 2
# T1 construct: made in house; host or cells: E. coli BL21(DE3)
# T1 sequence (P18031 1-435): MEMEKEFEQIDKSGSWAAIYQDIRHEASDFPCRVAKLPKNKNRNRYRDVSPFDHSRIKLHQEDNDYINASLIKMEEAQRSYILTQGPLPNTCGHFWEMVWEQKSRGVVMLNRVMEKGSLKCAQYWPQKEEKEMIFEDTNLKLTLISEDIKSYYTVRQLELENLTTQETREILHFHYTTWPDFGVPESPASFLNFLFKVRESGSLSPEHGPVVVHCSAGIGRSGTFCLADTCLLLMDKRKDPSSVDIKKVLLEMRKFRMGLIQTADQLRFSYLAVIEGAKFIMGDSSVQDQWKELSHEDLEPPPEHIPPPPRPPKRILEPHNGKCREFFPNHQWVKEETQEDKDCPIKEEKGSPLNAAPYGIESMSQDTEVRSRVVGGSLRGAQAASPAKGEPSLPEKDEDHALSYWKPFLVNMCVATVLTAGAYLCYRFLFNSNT
# Procedure: Protein tyrosine phosphatase was measured under cell-free conditions by a method partially modified from the methods described in previous reports (Baba Y, et al. J Am Chem Soc 2003; 125; 9740-9749; Rice R L, et al. Biochemistry 1997; 36: 15965-15974). Human PTP1B was cloned to a pGEX-6P-3 vector having a GST tag at the NH2 terminal, and expressed in competent E. coli BL21(DE3) suitable for transformation and protein expression. GST fusion PTP1B was affinity-purified using glutathione sepharose 4B (GE Healthcare Bio-Science KK, Tokyo, Japan). It was reacted with p-nitrophenylphosphate (p-NPP) (Sigma, St. Louis, Mo., USA) as a substrate and PTP1B activity was measured. The enzyme was pre-incubated in a reaction medium [50 mM HEPES, 1 mM EDTA, 50 mM NaCl, 1 mM dithiothreitol, pH 7.2] at 37° C. for 30 min in the presence or absence of diDCP-LA-PE and with or without addition of Na3VO4 which is a PTP1B inhibitor. Then, p-NPP (10 mM) was added to the reaction medium, and the mixture was incubated for 60 min. The reaction was discontinued by the addition of 0.1N NaOH. Dephosphorylated p-NPP, i.e., p-NP, was quantified at an absorbance of 405 nm by using SpectraMax PLUS384 (Molecular Devices, Sunnyvale, Calif., USA).
# [1] = test system: 3T3L1-GLUT4myc adipocytes; assay: Analysis of GLUT4 trafficking (cellular membrane transport of GLUT4); format: cell-based; settings: 20 min
# Procedure: 3T3L1-GLUT4myc fibroblast strain expressing GLUT4myc was used. The cells are constructed by inserting human c-MYC epitope (14 amino acids) into the first ectodomain. The cells were cultured in Dulbecco's Modified Eagles Medium (DMEM) added with 10% (v/v) bovine serum, penicillin (final concentration, 100 U/ml) and streptomycin (final concentration, 0.1 mg/ml) in a humid environment under 5% CO2 and 95% air at 37° C. When the cells reached confluence (day 0), the medium was exchanged with DMEM added with 10% (v/v) fetal bovine serum (FBS), 1 μM dexamethasone, 0.5 mM 3-isobutyl-methyl-xanthine and 0.1 mg/ml insulin to allow for differentiation from fibroblast into adipocyte. The medium was exchanged with DMEM added with 10% (v/v) FBS on day 3, day 7 and day 11. On day 14, the cells were used for the experiment.
# 3T3L1-GLUT4myc adipocytes were incubated in Krebs-Ringer-HEPES buffer [136 mM NaCl, 4.7 mM KCl, 1.25 mM CaCl2, 1.25 mM MgSO4 and 20 mM HEPES, pH 7.5] containing 0.2% (w/v) bovine serum albumin and added with 10 mM glucose at 37° C. for 1 hr. The cells were incubated in the presence or absence of insulin, phospholipid or a derivative thereof for 20 min. Then, the cells were homogenized by sonication in an ice-cooled mitochondria buffer containing 1% (v/v) protease inhibitor cocktail [210 mM mannitol, 70 mM sucrose, and 1 mM ethylenediaminetetraacetic acid (EDTA), 10 mM HEPES, pH 7.5]. Sequentially, the homogenate was centrifuged at 4° C. for 5 min at 3,000 rpm. The supernatant was further centrifuged at 4° C. for 15 min at 11,000 rpm. […] The protein concentration of each fraction was measured using BCA protein assay kit (Thermo Fisher Scientific, Waltham, Mass., USA). […] The immunoreactivity was detected using ECL kit (Invitrogen), and visualized using a chemical luminescence detection system (chemiluminescence detection system; GE Healthcare, Piscataway, N.J., USA). The signal density was measured using an image analysis software (Image Gauge software; GE Healthcare).
structure (smiles),measurement,setting,value
"CCCCCC1CC1CC1CC1CCCCCCCC(=O)OC[C@H](COP(=O)(O)OCCN)OC(=O)CCCCCCCC1CC1CC1CC1CCCCC (stereo partly drawn) [diDCP-LA-PE, 1,2-o-bis-[8-{2-(2-pentyl-cyclopropylmethyl)-cyclopropyl}-octanoyl]-sn-glycero-3-phosphatidylethanolamine]","PTP1B inhibition (phosphatase activity, dephosphorylated p-NPP)",Human PTP1B,inhibits PTP1B in a concentration-dependent manner
same,Promotion of cellular membrane transport of GLUT4,"[1]; 1 μM, FIG. 7",an action to promote cellular membrane transport of GLUT4
same,Concentration dependence of cellular membrane transport of GLUT4,"[1]; given concentrations, FIG. 8",promotes cellular membrane transport of GLUT4 in a concentration-dependent manner
